The subject of one assay is DOCA-salt mice. The assay is described as follows: Myofilament calcium sensitivity of fibers from mice chronically treated with ranolazine. The conditions noted are these: fibers from hearts of DOCA-salt mice chronically treated with ranolazine vs. DOCA-salt mice. The format is in vivo, mouse. The protocol:
A special diet contained 5 mg ranolazine, 0.3 mg P450 inhibitor, and 0.25 mg red food color was pressed into a 1-g nutritionally complete grain-based tablet (Harlan, Madison, Wis.). The control diet contained 0.3 mg P450 inhibitor and 0.25 mg yellow food color pressed into the same type of 1-g tablets. DOCA-salt and sham mice consumed daily ˜1 g of the special diet from postoperative day 11 to 18. […] We also determined Ktr, which is a measure of the rate of re-entry of cross-bridges into force generating states.

Assay [1] relates to myofilaments of skinned left ventricular papillary fiber bundles. In words: Simultaneous tension and ATPase rate in skinned fiber bundles (second series). It counts as biochemical, mouse. The conditions noted are these: ranolazine 15 min; for Maximum ATPase: 20° C.; for Ktr, the rate constant for force redevelopment: in s-1 (unit assumed). The protocol:
We measured myofilament response to Ca^2+ under two experimental conditions as described in detail below. In a first series of experiments the skinned fiber bundles were mounted in a force measuring apparatus and sarcomere length (SL) was adjusted to 2.2 μm using a laser diffraction pattern and width and thickness were determined for calculation of cross-sectional area. Force was measured over a range of pCa values Skinned fiber bundles were treated with 10 μmol/L ranolazine for 15 min prior to evaluation. In a second series of experiments under different experimental conditions, we determined steady-state Mg-ATPase activity, while simultaneously measuring isometric tension in skinned fiber bundles as a function of pCa. In all experiments, skinned fibers were treated with ranolazine or DMSO vehicle for 15 min prior to beginning either tension or tension/ATPase rate measurements. Tension generated was computed from the force/cross-sectional area and data were analyzed in the GraphPad Prism software and fit with a sigmoidal modified Hill equation in order to generate tension-pCa curves, Hill coefficients, and pCa50 (pCa value at half-maximum tension). We also determined cross-bridge kinetics employing a quick release/restretch protocol. The rate constant for force redevelopment, Ktr, provides a measure of the rate of cross-bridge entry into the force generating state. In all experiments, only fiber bundles retaining more than 80% of their initial maximum tension were included in the analysis. We treated the fibers with ranolazine from a DMSO stock solution or DMSO alone added to relaxing solution for 15 min prior to the experimental run. Methods for gel electrophoresis analysis of myofilament protein phosphorylation and oxidative modifications are provided below.
Studies with detergent extracted (skinned) fiber bundles: Mice were anesthetized with pentobarbital (50 mg/kg IP), and the hearts were rapidly excised and rinsed in a pH 7.0 ice-cold relaxing solution (HR) composed of (in mM) 10 EGTA, 41.89K-Prop, 6.57 MgCl2, 100 BES, 6.22 ATP, 5 Na azide, and 10 creatine phosphate. The solution also contained 1 μg/ml leupeptin, 2.5 μg/ml pepstatin A, and 50 μM phenylmethylsulfonyl fluoride. Left ventricular papillary muscles were dissected and fiber bundles were prepared as previously described (Wolska et al., J. Physiol. 536: 863-870 (2001)). The fiber bundles were extracted overnight in relaxing solution plus 1% Triton X-100 at 4° C.
In a second series of experiments force and ATPase rate were measured simultaneously using methods and an experimental apparatus previously described (de Tombe et al., Circ Res 76: 734-741 (1995); Wolska et al., Circ Res 84: 745-751 (1999)). The fiber bundles were mounted between a force transducer and displacement motor using aluminum T-clips, and the sarcomere length was set to 2.2 μm using He—Ne laser diffraction (Vahebi et al., Circ Res 96: 740-747 (2005)). The width and diameter were each measured at three points along the fiber bundle. Force per cross-sectional area was used to determine tension. The fiber was contracted initially at a saturating calcium concentration (pCa 4.5) and sarcomere length was again adjusted to 2.2 μm. Sarcomere length remained constant throughout the rest of the experiment.
ATPase activity was measured at 20° C. as previously described and calibrated with rapid injections of ADP (0.5 nmol) with a motor-controlled syringe (de Tombe et al., 1990, supra; Wolska et al., 1999, supra). The fiber was placed in relaxing solution for 2 min, then in the preactivation solution for 2-3 min each time before being placed in the activating solution for 1-2 min (until stabilization of force) and then quickly returned to the relaxing solution. Various contraction-relaxation cycles were carried out using different ratios of total calcium concentration to total EGTA concentration. The final contraction was again at a saturating calcium concentration. […]

In a further assay the test system is DOCA-salt and sham mice. In words: Echocardiography after chronic administration of ranolazine. The format is in vivo, mouse. The conditions noted are these: for ES (%): chronic ranolazine in diet (5 mg per 1-g tablet, ~1 g daily) for 7 days. The procedure:
A special diet contained 5 mg ranolazine, 0.3 mg P450 inhibitor, and 0.25 mg red food color was pressed into a 1-g nutritionally complete grain-based tablet (Harlan, Madison, Wis.). The control diet contained 0.3 mg P450 inhibitor and 0.25 mg yellow food color pressed into the same type of 1-g tablets. DOCA-salt and sham mice consumed daily ˜1 g of the special diet from postoperative day 11 to 18.
Mice were anesthetized, maintained at 37° C., and studied by echocardiography (Vevo 770, VisualSonics Inc, Toronto, Canada). M-mode images in the parasternal long axis and the left ventricle (LV) short-axis views at the mid-papillary level were taken. Measurements were averaged from three consecutive beats during expiration. LV inflow velocities (E and A waves) were interrogated by conventional pulsed-wave Doppler from the apical four-chamber view. The mitral annulus longitudinal velocities (Sm, E′, and A′) were determined by pulsed-wave tissue Doppler from the apical four-chamber view. Interpretation was done by a two investigators blinded to the treatment groups. First, baseline images were acquired. Subsequently to determine the acute effect, the mice were injected with 30 mg/kg ranolazine by intraperitoneal route, followed by a second echocardiogram 30 min later.
In an additional set of experiments, we treated DOCA-salt mice with ranolazine for 7 days and measured diastolic function using echocardiography to evaluate the effect of chronic ranolazine therapy on myocardial function (Table 5).

Where [2] appears, read: DOCA-salt mice, chronic ranolazine in diet, 7 days.
The mark [3] stands for this setting: sham mice, chronic ranolazine in diet, 7 days.

Take `COc1ccccc1OCC(O)CN1CCN(CC(=O)Nc2c(C)cccc2C)CC1` (stereo not drawn) [ranolazine]: in the assay on DOCA-salt mice, the “maximal tension in response to Ca2+” value was “significantly reduces maximal tension”. Moreover, in assay [1] (DOCA-salt fiber bundles), the “Maximum Tension” value amounted to 27.19 ± 0.54 mN/mm^2, the “Passive Tension” value was 0.68 ± 0.40 mN/mm^2, the “Tension Cost ΔATPase/ΔTension” value turned out to be 10.8 ± 0.8 and the “Maximum ATPase” value came to 326.9 ± 8.7 pmol/s/mg. The “Ktr, the rate constant for force redevelopment” value in assay [1] (DOCA-salt fiber bundles) worked out at 11.0 ± 1.0. In assay [1] (sham fiber bundles), the “Maximum Tension” value is reported as 36.80 ± 0.16 mN/mm^2, the “Passive Tension” value is 0.55 ± 0.33 mN/mm^2, the “Tension Cost ΔATPase/ΔTension” value was determined as 7.1 ± 0.4 and the “Maximum ATPase” value was 302.0 ± 9.0 pmol/s/mg. Besides, the “Ktr, the rate constant for force redevelopment” value in assay [1] (sham fiber bundles) came to 11.2 ± 0.5. Also, the “ES (%)” value in the assay with DOCA-salt and sham mice (DOCA-salt mice) was 53.3 ± 1.3%. In the assay on DOCA-salt and sham mice (setting [2]), the E/A is on record as 1.84 ± 0.35; the “E′, early septal mitral annulus velocity (TDI)” value came to 1.86 ± 0.13 cm/s; the “Sm, systolic septal mitral annulus velocity (TDI)” value was determined as 1.82 ± 0.05 cm/s. For the same molecule, the “ES (%)” value in the assay with DOCA-salt and sham mice (sham mice) is reported as 49.7 ± 4.9%. For the same molecule, in the assay with DOCA-salt and sham mice (setting [3]), the E/A is on record as 2.42 ± 0.42; the “E/E′” value is 28.0 ± 3.45; the “E′, early septal mitral annulus velocity (TDI)” value amounted to 2.11 ± 0.21 cm/s; the “E′/A′” value is listed as 1.03 ± 0.07. In addition, the “Sm, systolic septal mitral annulus velocity (TDI)” value in the assay with DOCA-salt and sham mice (setting [3]) turned out to be 2.04 ± 0.12 cm/s.

Values taken from patent US20120214818A1, “METHODS OF TREATING DIASTOLIC DYSFUNCTION AND RELATED CONDITIONS” (THE BOARD OF TRUSTEES OF THE UNIVERSITY OF ILLINOIS, priority 2009, published 2012).
